# Assays:
# p-p53 (Ser15) = assay: Trial (G): expression of p53 / p-p53 by Western blot; type: cell-based, human; conditions: 10, 25, 50 μM, 24 hours, NTUB1
# Method: In trial (G), expression of p53 is monitored via Western blot analysis in accordance with a journal article published by Son et al., at 2010 in Toxicol. Appl. Pharmacol., in which overproduction ROS induced p53 suppression is observed.
# Referring to TABLE 7, the NTUB1 cells at a density of 8×10^5 cells/ml are prepared and assigned into 9 groups, including G1-1 to G1-5 and G2-1 to G2-4, to incubate in various medium for 24 hours, followed by harvesting in trypsinization, resuspending in PBS till at a suitable density and collecting the NTUB1 cells of each group respectively.
# Next, the NTUB1 cells of each group are further diluted with equal volume of 2× sample buffer, boiled for 10 minutes twice to denature protein therein, and analyzed by SDS-PAGE. After that, proteins on SDS-PAGE datum are transferred to nitrocellulose membranes (Millipore, Billerica, Mass., USA) using a semi-dry blotter, followed by blocking with 5% (w/v) skimmed milk in TBST buffer (100 mM Tris-HCl (pH 7.5), 150 mM NaCl and 0.1% Tween-20), incubating with specific antibodies [including antibodies specific for b-acctin (NB600-501), p-p53 (Ser15) (9284) and p53 (DO1)]. at 4° C. overnight, washing with TBST buffer again and incubated with secondary antibody at room temperature. Finally, western data of each group are visualized on Fuji SuperRX film. […]
# NTUB1 = assay: Trial (B): MTT cytotoxicity assay, 72 hours; type: cell-based, human; conditions: 0-50 μM
# Text: For the sake of proving therapeutic effects of the derivatives of 18β-glycyrrhetinic acid of the present invention, including 10, 11, 13-17 and 21-25, in treating of cancer, human bladder cancer cell line NTUB1, human prostate cancer cell line PC3 cataloged as CRL-1435 (reference to J. Formosan Med. Assoc. 1992; 91:608-13), and immortalized normal human urothelial cells SV-HUC1 cataloged as CRL-9520 are purchased from American Type Culture Collection (ATCC; Rockville, USA) and maintained in a culturing medium respectively till at a preferable density to carry out a serial of trials (comprising trial A to G) for evaluating cytotoxicities of the derivatives of 18β-glycyrrhetinic acid against cancer cells, and mechanisms thereof. […]
# In trial (B), the cell lines of NTUB1, PC3, and SV-HUC1 are prepared in 96-well plates and co-incubated with the compounds 21, 23 or 25 in various concentrations of 0, 0.3, 1, 3, 5, 10, 30 and 50 μM, to analyze cytotoxic effects against either cancer cell or normal cells via a modified 3-[4,5-dimethylthiazol-2-yl]-2,5-diphenyltetrazolium bromide (MTT, Sigma Chemical Co.) assay. […] At co-incubation, 50 μL of MTT (2 mg/mL in PB) is added to each well to react for 3 hours, followed by centrifugating the 96-well plates at 1000 g for 10 min to remove supernatant, adding 150 μL DMSO in each well of the 96-well plates, and determining viability rates of the NTUB1, PC3, and SV-HUC1 cells separately by an absorbance spectrometry at 540 nm with a MRX (DYNEXCO) microplate reader.
structure (smiles),measurement,setting,value
"C=C(C)[C@@H]1CC[C@]2(C)[C@H](C(=O)C=C3[C@@H]4C[C@@](C)(C(=O)NC(C)C)CC[C@]4(C)CC[C@]32C)[C@@]1(C)CCC(=O)NC(C)C [Compound 25, 3,4-seco-11-oxo-18β-olean-4(23),12-dien-3,30-diisopropyl carbamate]","levels of p-p53 (Western blot, FIGS. 9, 10)",p-p53 (Ser15),increase levels of p-p53 in a dose-dependent manner
same,"cytotoxic effect (survival ratio, FIGS. 4-6)",NTUB1,"cytotoxic effects against to the cancer cells in a dose-dependent manner, particularly in against to NTUB1 cell"

# Reference: US8686178B2, “Derivative of 18β-glycyrrhetinic acid apt to suppress cancer cells” (Kaohsiung Medical University, priority 2011, dated 2014)
